test system: MCF-10A; experiment: normalised response (% of control), CellTiter-Glo; higher = more viable cells (100 = DMSO, 0 = benzethonium chloride kill control); conditions: incubation time: 72 h
Procedure: (§1)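 DSRT, 72 h incubation, CellTox Green / CellTiter-Glo readout. Signal is normalised to DMSO and benzethonium chloride controls. Value is the normalised response at the highest dose.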

Row | Compound | normalised response
1 | COc1cc2c(Oc3ccc4[nH]c(C)cc4c3F)ncnc2cc1OCCCN1CCCC1 [Cediranib] (1000 nM) | 70.5%
2 | Nc1nc2[nH]cc(CCc3ccc(C(=O)N[C@@H](CCC(=O)O)C(=O)O)cc3)c2c(=O)[nH]1 [Pemetrexed] (10000 nM) | 91.7%
3 | C[C@H]1C[C@@H]2[C@H]([C@@H](O)C[C@@]3(C)[C@H]2CC[C@]3(O)C(=O)CO)[C@@]2(C)C=CC(=O)C=C12 [Methylprednisolone] (10000 nM) | 101%
4 | CNC(=O)c1cc(Oc2ccc(NC(=O)Nc3cc(C(C)(C)C)nn3-c3ccc4ncccc4c3)c(F)c2)ccn1 [Rebastinib] (1000 nM) | 102%
5 | CCN(CC)CCCC(C)Nc1c2ccc(Cl)cc2nc2ccc(OC)cc12 (configuration not stated) [Mepacrine] (50000 nM) | 100%
6 | Nc1nc(F)nc2c1ncn2[C@@H]1O[C@H](CO)[C@@H](O)[C@@H]1O [Fludarabine] (10000 nM) | 114%
7 | CCCS(=O)(=O)Nc1ccc(F)c(C(=O)c2c[nH]c3ncc(-c4ccc(Cl)cc4)cc23)c1F [Vemurafenib] (10000 nM) | 95.8%
8 | O=C(O)C1(C(=O)O)CCC1.[NH2-].[NH2-].[Pt+2] [Carboplatin] (10000 nM) | 99.2%

test system: SK-BR-3; experiment: as above; conditions: incubation time: 72 h
Procedure: as §1

Row | Compound | normalised response
9 | COc1cc2c(Oc3ccc4[nH]c(C)cc4c3F)ncnc2cc1OCCCN1CCCC1 [Cediranib] (1000 nM) | 106%
10 | Nc1nc2[nH]cc(CCc3ccc(C(=O)N[C@@H](CCC(=O)O)C(=O)O)cc3)c2c(=O)[nH]1 [Pemetrexed] (10000 nM) | 65.9%
11 | C[C@H]1C[C@@H]2[C@H]([C@@H](O)C[C@@]3(C)[C@H]2CC[C@]3(O)C(=O)CO)[C@@]2(C)C=CC(=O)C=C12 [Methylprednisolone] (10000 nM) | 94.5%
12 | CNC(=O)c1cc(Oc2ccc(NC(=O)Nc3cc(C(C)(C)C)nn3-c3ccc4ncccc4c3)c(F)c2)ccn1 [Rebastinib] (1000 nM) | 92.1%
13 | CCN(CC)CCCC(C)Nc1c2ccc(Cl)cc2nc2ccc(OC)cc12 (configuration not stated) [Mepacrine] (50000 nM) | 89.3%
14 | Nc1nc(F)nc2c1ncn2[C@@H]1O[C@H](CO)[C@@H](O)[C@@H]1O [Fludarabine] (10000 nM) | 99%
15 | CCCS(=O)(=O)Nc1ccc(F)c(C(=O)c2c[nH]c3ncc(-c4ccc(Cl)cc4)cc23)c1F [Vemurafenib] (10000 nM) | 71%
16 | O=C(O)C1(C(=O)O)CCC1.[NH2-].[NH2-].[Pt+2] [Carboplatin] (10000 nM) | 92.8%

test system: MDA-MB-468; experiment: as above; conditions: incubation time: 72 h
Procedure: as §1

Row | Compound | normalised response
17 | COc1cc2c(Oc3ccc4[nH]c(C)cc4c3F)ncnc2cc1OCCCN1CCCC1 [Cediranib] (1000 nM) | 90.8%
18 | Nc1nc2[nH]cc(CCc3ccc(C(=O)N[C@@H](CCC(=O)O)C(=O)O)cc3)c2c(=O)[nH]1 [Pemetrexed] (10000 nM) | 93.3%
19 | C[C@H]1C[C@@H]2[C@H]([C@@H](O)C[C@@]3(C)[C@H]2CC[C@]3(O)C(=O)CO)[C@@]2(C)C=CC(=O)C=C12 [Methylprednisolone] (10000 nM) | 106%
20 | CNC(=O)c1cc(Oc2ccc(NC(=O)Nc3cc(C(C)(C)C)nn3-c3ccc4ncccc4c3)c(F)c2)ccn1 [Rebastinib] (1000 nM) | 102%
21 | CCN(CC)CCCC(C)Nc1c2ccc(Cl)cc2nc2ccc(OC)cc12 (configuration not stated) [Mepacrine] (50000 nM) | 102%
22 | Nc1nc(F)nc2c1ncn2[C@@H]1O[C@H](CO)[C@@H](O)[C@@H]1O [Fludarabine] (10000 nM) | 105%
23 | CCCS(=O)(=O)Nc1ccc(F)c(C(=O)c2c[nH]c3ncc(-c4ccc(Cl)cc4)cc23)c1F [Vemurafenib] (10000 nM) | 57.2%
24 | O=C(O)C1(C(=O)O)CCC1.[NH2-].[NH2-].[Pt+2] [Carboplatin] (10000 nM) | 92.4%

test system: HCC1143; experiment: as above; conditions: incubation time: 72 h
Procedure: as §1

Row | Compound | normalised response
25 | COc1cc2c(Oc3ccc4[nH]c(C)cc4c3F)ncnc2cc1OCCCN1CCCC1 [Cediranib] (1000 nM) | 99.8%
26 | Nc1nc2[nH]cc(CCc3ccc(C(=O)N[C@@H](CCC(=O)O)C(=O)O)cc3)c2c(=O)[nH]1 [Pemetrexed] (10000 nM) | 91%
27 | C[C@H]1C[C@@H]2[C@H]([C@@H](O)C[C@@]3(C)[C@H]2CC[C@]3(O)C(=O)CO)[C@@]2(C)C=CC(=O)C=C12 [Methylprednisolone] (10000 nM) | 104%
28 | CNC(=O)c1cc(Oc2ccc(NC(=O)Nc3cc(C(C)(C)C)nn3-c3ccc4ncccc4c3)c(F)c2)ccn1 [Rebastinib] (1000 nM) | 102%
29 | CCN(CC)CCCC(C)Nc1c2ccc(Cl)cc2nc2ccc(OC)cc12 (configuration not stated) [Mepacrine] (50000 nM) | 99.2%
30 | Nc1nc(F)nc2c1ncn2[C@@H]1O[C@H](CO)[C@@H](O)[C@@H]1O [Fludarabine] (10000 nM) | 69.9%
31 | CCCS(=O)(=O)Nc1ccc(F)c(C(=O)c2c[nH]c3ncc(-c4ccc(Cl)cc4)cc23)c1F [Vemurafenib] (10000 nM) | 86.1%
32 | O=C(O)C1(C(=O)O)CCC1.[NH2-].[NH2-].[Pt+2] [Carboplatin] (10000 nM) | 103%

test system: MFM-223; experiment: as above; conditions: incubation time: 72 h
Procedure: as §1

Row | Compound | normalised response
33 | COc1cc2c(Oc3ccc4[nH]c(C)cc4c3F)ncnc2cc1OCCCN1CCCC1 [Cediranib] (1000 nM) | 56.6%
34 | Nc1nc2[nH]cc(CCc3ccc(C(=O)N[C@@H](CCC(=O)O)C(=O)O)cc3)c2c(=O)[nH]1 [Pemetrexed] (10000 nM) | 89.7%
35 | C[C@H]1C[C@@H]2[C@H]([C@@H](O)C[C@@]3(C)[C@H]2CC[C@]3(O)C(=O)CO)[C@@]2(C)C=CC(=O)C=C12 [Methylprednisolone] (10000 nM) | 99.6%
36 | CNC(=O)c1cc(Oc2ccc(NC(=O)Nc3cc(C(C)(C)C)nn3-c3ccc4ncccc4c3)c(F)c2)ccn1 [Rebastinib] (1000 nM) | 62.2%
37 | CCN(CC)CCCC(C)Nc1c2ccc(Cl)cc2nc2ccc(OC)cc12 (configuration not stated) [Mepacrine] (50000 nM) | 93.5%
38 | Nc1nc(F)nc2c1ncn2[C@@H]1O[C@H](CO)[C@@H](O)[C@@H]1O [Fludarabine] (10000 nM) | 108%
39 | CCCS(=O)(=O)Nc1ccc(F)c(C(=O)c2c[nH]c3ncc(-c4ccc(Cl)cc4)cc23)c1F [Vemurafenib] (10000 nM) | 80.1%
40 | O=C(O)C1(C(=O)O)CCC1.[NH2-].[NH2-].[Pt+2] [Carboplatin] (10000 nM) | 102%

test system: BT-474; experiment: as above; conditions: incubation time: 72 h
Procedure: as §1

Row | Compound | normalised response
41 | COc1cc2c(Oc3ccc4[nH]c(C)cc4c3F)ncnc2cc1OCCCN1CCCC1 [Cediranib] (1000 nM) | 104%
42 | Nc1nc2[nH]cc(CCc3ccc(C(=O)N[C@@H](CCC(=O)O)C(=O)O)cc3)c2c(=O)[nH]1 [Pemetrexed] (10000 nM) | 39%
43 | C[C@H]1C[C@@H]2[C@H]([C@@H](O)C[C@@]3(C)[C@H]2CC[C@]3(O)C(=O)CO)[C@@]2(C)C=CC(=O)C=C12 [Methylprednisolone] (10000 nM) | 151%
44 | CNC(=O)c1cc(Oc2ccc(NC(=O)Nc3cc(C(C)(C)C)nn3-c3ccc4ncccc4c3)c(F)c2)ccn1 [Rebastinib] (1000 nM) | 81.6%
45 | CCN(CC)CCCC(C)Nc1c2ccc(Cl)cc2nc2ccc(OC)cc12 (configuration not stated) [Mepacrine] (50000 nM) | 100%
46 | Nc1nc(F)nc2c1ncn2[C@@H]1O[C@H](CO)[C@@H](O)[C@@H]1O [Fludarabine] (10000 nM) | 82.9%
47 | CCCS(=O)(=O)Nc1ccc(F)c(C(=O)c2c[nH]c3ncc(-c4ccc(Cl)cc4)cc23)c1F [Vemurafenib] (10000 nM) | 82.6%
48 | O=C(O)C1(C(=O)O)CCC1.[NH2-].[NH2-].[Pt+2] [Carboplatin] (10000 nM) | 98.8%

test system: HCC1599; experiment: as above; conditions: incubation time: 72 h
Procedure: as §1

Row | Compound | normalised response
49 | COc1cc2c(Oc3ccc4[nH]c(C)cc4c3F)ncnc2cc1OCCCN1CCCC1 [Cediranib] (1000 nM) | 92.8%
50 | Nc1nc2[nH]cc(CCc3ccc(C(=O)N[C@@H](CCC(=O)O)C(=O)O)cc3)c2c(=O)[nH]1 [Pemetrexed] (10000 nM) | 75.9%
51 | C[C@H]1C[C@@H]2[C@H]([C@@H](O)C[C@@]3(C)[C@H]2CC[C@]3(O)C(=O)CO)[C@@]2(C)C=CC(=O)C=C12 [Methylprednisolone] (10000 nM) | 103%
52 | CNC(=O)c1cc(Oc2ccc(NC(=O)Nc3cc(C(C)(C)C)nn3-c3ccc4ncccc4c3)c(F)c2)ccn1 [Rebastinib] (1000 nM) | 102%
53 | CCN(CC)CCCC(C)Nc1c2ccc(Cl)cc2nc2ccc(OC)cc12 (configuration not stated) [Mepacrine] (50000 nM) | 113%
54 | Nc1nc(F)nc2c1ncn2[C@@H]1O[C@H](CO)[C@@H](O)[C@@H]1O [Fludarabine] (10000 nM) | 78.9%
55 | CCCS(=O)(=O)Nc1ccc(F)c(C(=O)c2c[nH]c3ncc(-c4ccc(Cl)cc4)cc23)c1F [Vemurafenib] (10000 nM) | 86.4%
56 | O=C(O)C1(C(=O)O)CCC1.[NH2-].[NH2-].[Pt+2] [Carboplatin] (10000 nM) | 108%

test system: BT-549; experiment: as above; conditions: incubation time: 72 h
Procedure: as §1

Row | Compound | normalised response
57 | COc1cc2c(Oc3ccc4[nH]c(C)cc4c3F)ncnc2cc1OCCCN1CCCC1 [Cediranib] (1000 nM) | 83.6%
58 | Nc1nc2[nH]cc(CCc3ccc(C(=O)N[C@@H](CCC(=O)O)C(=O)O)cc3)c2c(=O)[nH]1 [Pemetrexed] (10000 nM) | 97.2%
59 | C[C@H]1C[C@@H]2[C@H]([C@@H](O)C[C@@]3(C)[C@H]2CC[C@]3(O)C(=O)CO)[C@@]2(C)C=CC(=O)C=C12 [Methylprednisolone] (10000 nM) | 98.4%
60 | CNC(=O)c1cc(Oc2ccc(NC(=O)Nc3cc(C(C)(C)C)nn3-c3ccc4ncccc4c3)c(F)c2)ccn1 [Rebastinib] (1000 nM) | 71.3%
61 | CCN(CC)CCCC(C)Nc1c2ccc(Cl)cc2nc2ccc(OC)cc12 (configuration not stated) [Mepacrine] (50000 nM) | 106%
62 | Nc1nc(F)nc2c1ncn2[C@@H]1O[C@H](CO)[C@@H](O)[C@@H]1O [Fludarabine] (10000 nM) | 79.1%
63 | CCCS(=O)(=O)Nc1ccc(F)c(C(=O)c2c[nH]c3ncc(-c4ccc(Cl)cc4)cc23)c1F [Vemurafenib] (10000 nM) | 71.8%
64 | O=C(O)C1(C(=O)O)CCC1.[NH2-].[NH2-].[Pt+2] [Carboplatin] (10000 nM) | 103%

test system: CAL-120; experiment: as above; conditions: incubation time: 72 h
Procedure: as §1

Row | Compound | normalised response
65 | COc1cc2c(Oc3ccc4[nH]c(C)cc4c3F)ncnc2cc1OCCCN1CCCC1 [Cediranib] (1000 nM) | 90.4%
66 | Nc1nc2[nH]cc(CCc3ccc(C(=O)N[C@@H](CCC(=O)O)C(=O)O)cc3)c2c(=O)[nH]1 [Pemetrexed] (10000 nM) | 81.9%
67 | C[C@H]1C[C@@H]2[C@H]([C@@H](O)C[C@@]3(C)[C@H]2CC[C@]3(O)C(=O)CO)[C@@]2(C)C=CC(=O)C=C12 [Methylprednisolone] (10000 nM) | 77.7%
68 | CNC(=O)c1cc(Oc2ccc(NC(=O)Nc3cc(C(C)(C)C)nn3-c3ccc4ncccc4c3)c(F)c2)ccn1 [Rebastinib] (1000 nM) | 69.2%
69 | CCN(CC)CCCC(C)Nc1c2ccc(Cl)cc2nc2ccc(OC)cc12 (configuration not stated) [Mepacrine] (50000 nM) | 106%
70 | Nc1nc(F)nc2c1ncn2[C@@H]1O[C@H](CO)[C@@H](O)[C@@H]1O [Fludarabine] (10000 nM) | 86.1%
71 | CCCS(=O)(=O)Nc1ccc(F)c(C(=O)c2c[nH]c3ncc(-c4ccc(Cl)cc4)cc23)c1F [Vemurafenib] (10000 nM) | 91.1%
72 | O=C(O)C1(C(=O)O)CCC1.[NH2-].[NH2-].[Pt+2] [Carboplatin] (10000 nM) | 101%
